Laboratory results taken from ChEMBL document CHEMBL2074434, “Interaction of cytochrome P450 3A inhibitors with P-glycoprotein” (J Pharmacol Exp Ther, 2002).

Columns and labels:
[1] = molecular target: T1, ATP-dependent translocase ABCB1 (Mus musculus, UniProt P21447); experiment: TP_TRANSPORTER: increase in Calcein-AM intracellular accumulation in mdr1a-expressing LLC-PK1 cells; type: functional, cell-based
[2] = molecular target: ATP-dependent translocase ABCB1 (Mus musculus, UniProt P06795); experiment: TP_TRANSPORTER: increase in Calcein-AM intracellular accumulation in mdr1b-expressing LLC-PK1 cells; type: functional, cell-based
[3] = molecular target: T1, ATP-dependent translocase ABCB1; experiment: TP_TRANSPORTER: increase in kidney concentration in mdr1a(-/-) mouse; type: functional, organism-based; conditions: in vivo
[4] = molecular target: T1, ATP-dependent translocase ABCB1; experiment: TP_TRANSPORTER: transepithelial transport (basal to apical) in mdr1a-expressing LLC-PK1 cell; type: functional, cell-based; conditions: pig
[5] = molecular target: ATP-dependent translocase ABCB1 (Homo sapiens, UniProt P08183); experiment: TP_TRANSPORTER: transepithelial transport (basal to apical) in MDR1-expressing LLC-PK1 cells; type: functional, cell-based; conditions: pig
[6] = molecular target: T1, ATP-dependent translocase ABCB1; experiment: TP_TRANSPORTER: no influence on tissue distribution in mdr1a(-/-) mouse; type: functional, organism-based; conditions: in vivo
[7] = molecular target: T1, ATP-dependent translocase ABCB1; experiment: TP_TRANSPORTER: increase in spleen concentration in mdr1a(-/-) mouse; type: functional, organism-based; conditions: in vivo
[8] = molecular target: T1, ATP-dependent translocase ABCB1; experiment: TP_TRANSPORTER: increase in lung concentration in mdr1a(-/-) mouse; type: functional, organism-based; conditions: in vivo
[9] = molecular target: T1, ATP-dependent translocase ABCB1; experiment: TP_TRANSPORTER: increase in liver concentration in mdr1a(-/-) mouse; type: functional, organism-based; conditions: in vivo
[10] = molecular target: T1, ATP-dependent translocase ABCB1; experiment: TP_TRANSPORTER: increase in heart concentration in mdr1a(-/-) mouse; type: functional, organism-based; conditions: in vivo

ATP-dependent translocase ABCB1 (Mus musculus, UniProt P06795), sequence (P06795 whole entry): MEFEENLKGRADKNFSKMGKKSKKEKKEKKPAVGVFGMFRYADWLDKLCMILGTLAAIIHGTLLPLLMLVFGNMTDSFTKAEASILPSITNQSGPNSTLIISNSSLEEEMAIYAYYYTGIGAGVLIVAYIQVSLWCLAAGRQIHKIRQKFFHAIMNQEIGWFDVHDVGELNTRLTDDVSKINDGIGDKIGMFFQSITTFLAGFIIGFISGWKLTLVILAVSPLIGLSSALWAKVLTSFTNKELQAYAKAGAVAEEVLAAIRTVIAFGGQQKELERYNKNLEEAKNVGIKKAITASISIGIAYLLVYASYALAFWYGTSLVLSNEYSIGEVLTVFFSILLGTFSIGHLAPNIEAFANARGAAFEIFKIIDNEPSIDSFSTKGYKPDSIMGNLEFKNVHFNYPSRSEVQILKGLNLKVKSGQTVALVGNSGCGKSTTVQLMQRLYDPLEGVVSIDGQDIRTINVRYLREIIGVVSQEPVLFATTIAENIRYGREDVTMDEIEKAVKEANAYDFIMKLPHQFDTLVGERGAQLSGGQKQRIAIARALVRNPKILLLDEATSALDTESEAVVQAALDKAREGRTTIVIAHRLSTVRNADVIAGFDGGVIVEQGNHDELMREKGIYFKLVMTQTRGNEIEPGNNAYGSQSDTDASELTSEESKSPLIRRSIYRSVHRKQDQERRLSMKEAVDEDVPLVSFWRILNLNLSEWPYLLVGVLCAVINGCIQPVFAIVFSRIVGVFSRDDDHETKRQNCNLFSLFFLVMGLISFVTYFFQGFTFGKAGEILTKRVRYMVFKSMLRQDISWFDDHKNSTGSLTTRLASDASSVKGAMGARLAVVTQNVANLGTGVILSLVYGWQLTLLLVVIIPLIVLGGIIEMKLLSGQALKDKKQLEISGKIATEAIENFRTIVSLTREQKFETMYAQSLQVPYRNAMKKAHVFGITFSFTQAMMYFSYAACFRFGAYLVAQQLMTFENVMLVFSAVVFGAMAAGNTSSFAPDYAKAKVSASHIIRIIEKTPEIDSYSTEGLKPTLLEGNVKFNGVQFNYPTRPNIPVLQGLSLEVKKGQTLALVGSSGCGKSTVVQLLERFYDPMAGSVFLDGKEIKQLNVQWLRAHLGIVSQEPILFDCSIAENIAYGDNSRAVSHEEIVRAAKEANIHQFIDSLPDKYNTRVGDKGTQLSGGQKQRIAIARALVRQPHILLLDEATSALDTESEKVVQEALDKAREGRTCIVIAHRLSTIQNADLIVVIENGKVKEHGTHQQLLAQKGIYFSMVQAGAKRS
T1 sequence (P21447 whole entry): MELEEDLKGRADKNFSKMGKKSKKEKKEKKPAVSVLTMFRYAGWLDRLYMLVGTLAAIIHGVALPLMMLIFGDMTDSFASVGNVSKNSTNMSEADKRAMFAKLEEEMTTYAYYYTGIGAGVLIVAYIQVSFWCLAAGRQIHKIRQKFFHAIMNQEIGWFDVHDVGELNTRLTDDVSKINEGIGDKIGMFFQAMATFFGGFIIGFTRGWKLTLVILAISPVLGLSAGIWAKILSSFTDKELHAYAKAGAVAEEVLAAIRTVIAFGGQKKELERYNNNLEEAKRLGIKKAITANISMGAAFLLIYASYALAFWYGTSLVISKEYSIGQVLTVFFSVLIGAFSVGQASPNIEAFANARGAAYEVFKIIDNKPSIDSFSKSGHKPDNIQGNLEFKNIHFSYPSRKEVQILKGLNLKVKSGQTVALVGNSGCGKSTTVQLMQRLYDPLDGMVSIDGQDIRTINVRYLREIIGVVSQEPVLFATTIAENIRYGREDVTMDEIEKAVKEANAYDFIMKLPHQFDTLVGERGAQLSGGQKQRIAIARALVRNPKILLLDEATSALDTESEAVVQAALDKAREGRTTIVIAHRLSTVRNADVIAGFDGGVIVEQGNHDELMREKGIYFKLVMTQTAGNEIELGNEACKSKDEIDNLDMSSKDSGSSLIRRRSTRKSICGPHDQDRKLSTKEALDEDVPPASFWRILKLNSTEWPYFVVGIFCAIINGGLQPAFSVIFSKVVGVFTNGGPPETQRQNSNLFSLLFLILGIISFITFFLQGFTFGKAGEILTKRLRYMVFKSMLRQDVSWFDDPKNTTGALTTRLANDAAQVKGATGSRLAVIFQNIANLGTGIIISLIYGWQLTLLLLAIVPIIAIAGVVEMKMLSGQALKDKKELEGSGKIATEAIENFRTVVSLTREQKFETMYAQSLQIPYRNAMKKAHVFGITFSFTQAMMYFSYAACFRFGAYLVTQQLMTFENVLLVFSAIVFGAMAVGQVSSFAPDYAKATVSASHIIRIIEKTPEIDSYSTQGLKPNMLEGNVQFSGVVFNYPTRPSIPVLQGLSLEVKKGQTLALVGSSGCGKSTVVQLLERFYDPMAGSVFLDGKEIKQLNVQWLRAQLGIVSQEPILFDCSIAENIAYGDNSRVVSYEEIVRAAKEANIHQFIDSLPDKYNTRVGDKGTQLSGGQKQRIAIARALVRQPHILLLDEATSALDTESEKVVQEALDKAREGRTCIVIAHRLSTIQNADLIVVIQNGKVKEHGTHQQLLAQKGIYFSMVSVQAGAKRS
ATP-dependent translocase ABCB1 (Homo sapiens, UniProt P08183), sequence (P08183 whole entry): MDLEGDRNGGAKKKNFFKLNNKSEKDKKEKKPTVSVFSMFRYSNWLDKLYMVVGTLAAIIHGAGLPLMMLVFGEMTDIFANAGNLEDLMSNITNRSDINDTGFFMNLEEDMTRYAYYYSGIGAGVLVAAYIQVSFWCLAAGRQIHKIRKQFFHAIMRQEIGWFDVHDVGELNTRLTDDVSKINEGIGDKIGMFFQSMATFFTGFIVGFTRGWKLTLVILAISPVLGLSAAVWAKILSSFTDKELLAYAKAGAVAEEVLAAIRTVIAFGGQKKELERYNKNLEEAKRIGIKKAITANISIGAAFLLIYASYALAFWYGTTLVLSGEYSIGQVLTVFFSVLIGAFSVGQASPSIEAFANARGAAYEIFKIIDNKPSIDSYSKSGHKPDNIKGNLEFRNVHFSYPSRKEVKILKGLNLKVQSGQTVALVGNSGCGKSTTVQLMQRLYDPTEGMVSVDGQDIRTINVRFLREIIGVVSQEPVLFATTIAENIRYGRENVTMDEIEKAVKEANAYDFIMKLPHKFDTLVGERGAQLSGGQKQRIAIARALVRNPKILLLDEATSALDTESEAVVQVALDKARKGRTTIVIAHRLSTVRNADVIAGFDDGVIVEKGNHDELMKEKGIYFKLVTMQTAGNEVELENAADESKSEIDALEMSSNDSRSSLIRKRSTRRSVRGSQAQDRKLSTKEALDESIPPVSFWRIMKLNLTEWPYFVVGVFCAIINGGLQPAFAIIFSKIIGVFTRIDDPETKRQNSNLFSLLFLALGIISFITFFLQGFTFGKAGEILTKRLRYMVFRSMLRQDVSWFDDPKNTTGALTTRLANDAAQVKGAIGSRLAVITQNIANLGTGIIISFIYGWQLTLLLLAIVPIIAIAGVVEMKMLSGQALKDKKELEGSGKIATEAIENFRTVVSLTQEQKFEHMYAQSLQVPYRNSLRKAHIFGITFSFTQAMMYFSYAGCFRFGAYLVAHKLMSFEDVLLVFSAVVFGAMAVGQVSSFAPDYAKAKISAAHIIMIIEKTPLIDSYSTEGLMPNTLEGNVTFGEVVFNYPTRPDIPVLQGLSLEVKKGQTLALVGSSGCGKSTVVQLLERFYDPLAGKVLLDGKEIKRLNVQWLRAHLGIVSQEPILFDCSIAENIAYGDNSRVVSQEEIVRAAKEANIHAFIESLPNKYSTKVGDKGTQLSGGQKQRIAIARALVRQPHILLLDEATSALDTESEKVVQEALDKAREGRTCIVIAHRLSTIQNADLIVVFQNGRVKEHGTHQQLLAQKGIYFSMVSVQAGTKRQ

SMILES | Ki [1] | Ki [2] | other results
CC(C)[C@H]1C(=O)N2CCC[C@H]2[C@]2(O)O[C@](NC(=O)[C@@H]3C=C4c5cccc6[nH]cc(c56)C[C@H]4N(C)C3)(C(C)C)C(=O)N12 [ERGOCORNINE] | 272 µM | 19.1 µM | 
CO[C@H]1C[C@H](O[C@H]2[C@H](C)[C@@H](O[C@@H]3O[C@H](C)C[C@H](N(C)C)[C@H]3OC(C)=O)[C@@H](C)C[C@@]3(CO3)C(=O)[C@H](C)[C@@H](OC(C)=O)[C@@H](C)[C@@H](C)OC(=O)[C@@H]2C)O[C@@H](C)[C@@H]1OC(C)=O [TROLEANDOMYCIN] | 217 µM | > 1000 µM | 
CN1C[C@H](C(=O)N[C@]2(C)O[C@@]3(O)[C@@H]4CCCN4C(=O)[C@H](Cc4ccccc4)N3C2=O)C[C@@H]2c3cccc4[nH]cc(c34)C[C@H]21 [DIHYDROERGOTAMINE] | > 1000 µM | > 1000 µM | 
CC(C)C[C@H]1C(=O)N2CCC[C@H]2[C@]2(O)O[C@](NC(=O)[C@@H]3C[C@@H]4c5cccc6[nH]cc(c56)C[C@H]4N(C)C3)(C(C)C)C(=O)N12 [DIHYDROERGOCRYPTINE] | 333 µM | 160 µM | Activity [3]: substrate [+]; Activity [4]: substrate [+]
Clc1ccccc1C(c1ccccc1)(c1ccccc1)n1ccnc1 [CLOTRIMAZOLE] | 18.3 µM | 25.1 µM | 
CC(C)C[C@H]1C(=O)N2CCC[C@H]2[C@]2(O)O[C@](NC(=O)[C@@H]3C=C4c5cccc6[nH]c(Br)c(c56)C[C@H]4N(C)C3)(C(C)C)C(=O)N12 [BROMOCRIPTINE] | 7.48 µM | 6.39 µM | 
CC(C)[C@@]1(NC(=O)[C@@H]2C[C@@H]3c4cccc5[nH]cc(c45)C[C@H]3N(C)C2)O[C@@]2(O)[C@@H]3CCCN3C(=O)[C@H](Cc3ccccc3)N2C1=O [DIHYDROERGOCRISTINE] | 111 µM | 167 µM | Activity [5]: substrate [+]
CC(C)C[C@H]1C(=O)N2CCC[C@H]2[C@]2(O)O[C@](NC(=O)[C@@H]3C=C4c5cccc6[nH]cc(c56)C[C@H]4N(C)C3)(C(C)C)C(=O)N12 [ERGOCRYPTINE] | 43.5 µM | 26.9 µM | 
CC[C@H]1OC(=O)[C@H](C)[C@@H](O[C@H]2C[C@@](C)(OC)[C@@H](O)[C@H](C)O2)[C@H](C)[C@@H](O[C@@H]2O[C@H](C)C[C@H](N(C)C)[C@H]2O)[C@](C)(O)C[C@@H](C)C(=O)[C@H](C)[C@@H](O)[C@]1(C)O [ERYTHROMYCIN] | > 1000 µM |  | 
CN1C[C@H](C(=O)N[C@]2(C)O[C@@]3(O)[C@@H]4CCCN4C(=O)[C@H](Cc4ccccc4)N3C2=O)C=C2c3cccc4[nH]cc(c34)C[C@H]21 [ERGOTAMINE] | 189 µM | 18 µM | 
C[C@@H](CO)NC(=O)[C@@H]1C=C2c3cccc4[nH]cc(c34)C[C@H]2N(C)C1 [ERGONOVINE] | 118 µM | > 1000 µM | 
OC(Cn1cncn1)(Cn1cncn1)c1ccc(F)cc1F [FLUCONAZOLE] | > 1000 µM | > 1000 µM | Activity [5]: is not a substrate [-]; Activity [6]: is not a substrate [-]; Activity [4]: substrate [+]
CC(C)[C@@]1(NC(=O)[C@@H]2C=C3c4cccc5[nH]cc(c45)C[C@H]3N(C)C2)O[C@@]2(O)[C@@H]3CCCN3C(=O)[C@H](Cc3ccccc3)N2C1=O [ERGOCRISTINE] | 39.4 µM | 15.3 µM | 
Clc1ccc(COC(Cn2ccnc2)c2ccc(Cl)cc2Cl)c(Cl)c1 (stereo not given) [MICONAZOLE] | 22.2 µM |  | 
COC(=O)[C@H]1[C@H]2C[C@@H]3c4[nH]c5cc(OC)ccc5c4CCN3C[C@H]2C[C@@H](OC(=O)c2cc(OC)c(OC)c(OC)c2)[C@@H]1OC [RESERPINE] | 4.03 µM | 17.9 µM | Activity [3]: substrate [+]; Activity [7]: substrate [+]; Activity [8]: substrate [+]; Activity [9]: substrate [+]; Activity [10]: substrate [+]; Activity [4]: substrate [+]
